Data from PubChem BioAssay AID1259407 (Chemical Carcinogenesis Research Information System (CCRIS), 2018).
Activity calls are given as the source filed them. The rule behind the calls is not given here. Where a SMILES comes first, the peptide text is derived from it.

System: CCRIS mutagenicity, Ames/micronucleus/aberration tests
Assay: CCRIS mutagenicity studies
[1] = Test System: AMES SALMONELLA TYPHIMURIUM, Strain/Indicator: TA98, Metabolic Activation: NONE, Method: STANDARD PLATE
[2] = Test System: AMES SALMONELLA TYPHIMURIUM, Strain/Indicator: TA100, Metabolic Activation: NONE, Method: STANDARD PLATE
[3] = Test System: AMES SALMONELLA TYPHIMURIUM, Strain/Indicator: TA100, Metabolic Activation: RAT, LIVER, S-9, AROCLOR 1254, Method: STANDARD PLATE

SMILES: Nc1nc(N)nc(Cl)n1
- mutagenic call (Test System: AMES SALMONELLA TYPHIMURIUM, Strain/Indicator: TA97, Metabolic Activation: NONE, Method: STANDARD PLATE): inactive; negative
- mutagenic call [1]: inactive; negative
- mutagenic call [2]: inactive; negative

SMILES: CC(C)C[C@H](NC(=O)[C@H](Cc1ccccc1)NC(=O)CNC(=O)CN)C(=O)O (H-GGFL-OH)
- mutagenic call [1]: inactive; negative
- mutagenic call (Test System: AMES SALMONELLA TYPHIMURIUM, Strain/Indicator: TA98, Metabolic Activation: RAT, LIVER, S-9, AROCLOR 1254, Method: STANDARD PLATE): inactive; negative
- mutagenic call [2]: inactive; negative
- mutagenic call [3]: inactive; negative
- mutagenic call (Test System: AMES SALMONELLA TYPHIMURIUM, Strain/Indicator: TA1535, Metabolic Activation: NONE, Method: STANDARD PLATE): inactive; negative
- mutagenic call (Test System: AMES SALMONELLA TYPHIMURIUM, Strain/Indicator: TA1535, Metabolic Activation: RAT, LIVER, S-9, AROCLOR 1254, Method: STANDARD PLATE): inactive; negative
- mutagenic call (Test System: AMES SALMONELLA TYPHIMURIUM, Strain/Indicator: TA1537, Metabolic Activation: NONE, Method: STANDARD PLATE): inactive; negative
- mutagenic call (Test System: AMES SALMONELLA TYPHIMURIUM, Strain/Indicator: TA1537, Metabolic Activation: RAT, LIVER, S-9, AROCLOR 1254, Method: STANDARD PLATE): inactive; negative

SMILES: COc1c(OC)c2occc2c2oc(=O)ccc12
- mutagenic call [1]: inactive; negative
- mutagenic call (Test System: AMES SALMONELLA TYPHIMURIUM, Strain/Indicator: TA98, Metabolic Activation: RAT, LIVER, S-9, PHENOBARBITAL, Method: STANDARD PLATE): inactive; negative

SMILES: O=C1NC(=O)C(O)(O)C(=O)N1
- mutagenic call (End Point: IN VITRO CHROMOSOMAL ABERRATIONS, Test System: CHO CELLS, Metabolic Activation: NONE): inactive; negative
- mutagenic call (End Point: IN VITRO CHROMOSOMAL ABERRATIONS, Test System: CHO CELLS, Metabolic Activation: RAT, LIVER, S-9, AROCLOR 1254): inactive; negative
- mutagenic call (Test System: AMES SALMONELLA TYPHIMURIUM, Strain/Indicator: TA97, Metabolic Activation: HAMSTER, LIVER, S-9, AROCLOR 1254 (10 OR 30%), Method: PREINCUBATION): inactive; negative
- mutagenic call (Test System: AMES SALMONELLA TYPHIMURIUM, Strain/Indicator: TA97, Metabolic Activation: NONE, Method: PREINCUBATION): inactive; negative
- mutagenic call (Test System: AMES SALMONELLA TYPHIMURIUM, Strain/Indicator: TA97, Metabolic Activation: RAT, LIVER, S-9, AROCLOR 1254 (10 OR 30%), Method: PREINCUBATION): inactive; negative
- mutagenic call (Test System: AMES SALMONELLA TYPHIMURIUM, Strain/Indicator: TA98, Metabolic Activation: HAMSTER, LIVER, S-9, AROCLOR 1254 (10 OR 30%), Method: PREINCUBATION): inactive; negative
- mutagenic call (Test System: AMES SALMONELLA TYPHIMURIUM, Strain/Indicator: TA98, Metabolic Activation: NONE, Method: PREINCUBATION): inactive; negative
- mutagenic call (Test System: AMES SALMONELLA TYPHIMURIUM, Strain/Indicator: TA98, Metabolic Activation: RAT, LIVER, S-9, AROCLOR 1254 (10 OR 30%), Method: PREINCUBATION): inactive; negative
- mutagenic call (Test System: AMES SALMONELLA TYPHIMURIUM, Strain/Indicator: TA100, Metabolic Activation: HAMSTER, LIVER, S-9, AROCLOR 1254 (10 OR 30%), Method: PREINCUBATION): inactive; negative
- mutagenic call (Test System: AMES SALMONELLA TYPHIMURIUM, Strain/Indicator: TA100, Metabolic Activation: NONE, Method: PREINCUBATION): inactive; negative
- mutagenic call (Test System: AMES SALMONELLA TYPHIMURIUM, Strain/Indicator: TA100, Metabolic Activation: RAT, LIVER, S-9, AROCLOR 1254 (10 OR 30%), Method: PREINCUBATION): inactive; negative
- mutagenic call (Test System: AMES SALMONELLA TYPHIMURIUM, Strain/Indicator: TA1535, Metabolic Activation: HAMSTER, LIVER, S-9, AROCLOR 1254 (10%), Method: PREINCUBATION): inactive; negative
- mutagenic call (Test System: AMES SALMONELLA TYPHIMURIUM, Strain/Indicator: TA1535, Metabolic Activation: HAMSTER, LIVER, S-9, AROCLOR 1254 (30%), Method: PREINCUBATION): inactive; negative
- mutagenic call (Test System: AMES SALMONELLA TYPHIMURIUM, Strain/Indicator: TA1535, Metabolic Activation: NONE, Method: PREINCUBATION): inactive; negative
- mutagenic call (Test System: AMES SALMONELLA TYPHIMURIUM, Strain/Indicator: TA1535, Metabolic Activation: RAT, LIVER, S-9, AROCLOR 1254 (10 OR 30%), Method: PREINCUBATION): inactive; negative

SMILES: CCCn1cc2c3c(cccc31)C1C[C@@H](C)CN(C#N)[C@@H]1C2 (some centres undefined)
- mutagenic call [3]: active; positive
